What is called IC50 is the concentration that gives 50% inhibition.

Assay [1] concerns the target T1, melatonin ML1b receptor (Homo sapiens, UniProt P49286).
T1 construct: expressed in transfected cells; membrane homogenates
T1 sequence (P49286 1-362): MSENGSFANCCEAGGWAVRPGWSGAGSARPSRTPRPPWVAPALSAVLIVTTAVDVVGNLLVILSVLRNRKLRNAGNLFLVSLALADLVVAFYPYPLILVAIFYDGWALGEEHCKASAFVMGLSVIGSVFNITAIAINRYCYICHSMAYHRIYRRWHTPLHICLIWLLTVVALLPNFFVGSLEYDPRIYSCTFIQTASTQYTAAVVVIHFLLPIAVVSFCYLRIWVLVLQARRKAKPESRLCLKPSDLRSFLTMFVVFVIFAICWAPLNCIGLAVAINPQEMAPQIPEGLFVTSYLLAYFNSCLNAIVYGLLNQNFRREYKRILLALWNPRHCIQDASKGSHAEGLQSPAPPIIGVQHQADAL
Kind of assay: Melatonergic receptor binding, 2-[125I]-iodomelatonin, ML1b. The note with it: Table III; NIH-3T3 membranes, 0.2 nM 2-[125I]-iodomelatonin, 37° C. 1 hour. In short, it runs like this: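 Membranes from NIH-3T3 cells stably expressing the human receptor, incubated with 0.2 nM 2-[125I]-iodomelatonin in Tris/MgCl2/EDTA buffer, pH 7.4, 1 h at 37° C. Nonspecific binding defined with 10^−5 M melatonin (final). Bound radioligand separated by filtration.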

Assay [2] deals with T2, melatonin ML1a receptor (Homo sapiens, UniProt P48039).
T2 construct: expressed in transfected cells; membrane homogenates
Kind of assay: Melatonergic receptor binding, 2-[125I]-iodomelatonin, ML1a. The note with it: Table III; NIH-3T3 membranes, 0.1 nM 2-[125I]-iodomelatonin, 37° C. 1 hour. In short, it runs like this: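 Membranes from NIH-3T3 cells stably expressing human ML1a receptor were incubated 1 h at 37° C in Tris/MgCl2/EDTA buffer, pH 7.4, with 0.1 nM 2-[125I]-iodomelatonin. Nonspecific binding defined with 10^−5 M melatonin (final). Binding terminated by filtration with three washes.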

T2 sequence (P48039 whole entry): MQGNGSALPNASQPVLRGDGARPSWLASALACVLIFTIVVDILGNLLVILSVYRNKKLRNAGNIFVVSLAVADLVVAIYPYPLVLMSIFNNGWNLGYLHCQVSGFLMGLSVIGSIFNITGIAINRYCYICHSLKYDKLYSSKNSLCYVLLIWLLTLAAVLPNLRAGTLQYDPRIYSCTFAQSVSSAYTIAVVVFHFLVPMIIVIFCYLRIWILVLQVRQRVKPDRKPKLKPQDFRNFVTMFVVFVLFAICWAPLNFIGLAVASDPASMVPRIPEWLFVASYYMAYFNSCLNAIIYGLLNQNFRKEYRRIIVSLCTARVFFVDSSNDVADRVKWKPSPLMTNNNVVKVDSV

Regarding “N-({(1R,2R)-2-[2-(5-Phenylbutyl)benzoxazol-7-yl]cyclopropyl}methyl)acetamide [Example 94]”, the IC50 in assay [1] and in assay [2] was less than 10 nM each time.

On to “N-({(1R,2R)-2-[2-(5-Phenylbutyl)benzoxazol-7-yl]cyclopropyl}methyl)butanamide [Example 96]”, for which the half-inhibitory concentration (IC50) in assay [1] and in assay [2] was less than 10 nM each time.

Consider “N-({(1R,2R)-2-[2-(5-Phenylbutyl)benzoxazol-7-yl]cyclopropyl}methyl)cyclopropylcarboxamide [Example 98]”, for which the IC50 in assay [1] and in assay [2] was less than 10 nM in each case.

On to “N-({(1R,2R)-2-[2-(5-Phenylbutyl)benzoxazol-7-yl]cyclopropyl}methyl)propanamide [Example 95]”, for which the IC50 in assay [1] and in assay [2] was less than 10 nM in each case.

Regarding “N-({(1R,2R)-2-[2-(Methylethyl)benzoxazol-7-yl]cyclopropyl}methyl)-3-methylbutanamide [Example 89]”, the IC50 in assay [1] and in assay [2] was less than 10 nM in each case.
